Assay results published in patent publication US7147824B2, “Method for suppressing growth of mycobacteria in metalworking fluids” (priority 2003, dated 2006).
In brackets after ≈: the same amount, converted by molar mass.

system: Mycobacterium immunogenum MWF isolates; assay: Anti-mycobacterial activity in MWF, plating on Mycoagar; type: cell-based; conditions: MCC added to a MWF 24 hours after the isothiazolones had been added
Experimental: The MWFs selected were fluids which had evidence of CMIT incompatibility. The MCC was added to the MWFs 24 hours before the CMIT was added; 24 hours after the CMIT was added; or in a mixture with the CMIT. This was done for each concentration of CMIT (7.5 and 15 ppm) and MCC (250 and 500 ppm). Controls consisted of no biocide and CMIT at 7.5 and 15 ppm. Stability of the isothiazolones was evaluated at time 0 and then after 24 and 48 hours by standard methods for detecting isothiazones. Plating for mycobacteria kill was performed with aliquots from time 0 and 48 hours.
Plating was performed on 100 mm petri dishes containing 20 mL of an appropriate agar. Two different formulations, both based on Plate Count Agar (standard methods for waste and waste water). The medium for recovery of Mycobacterium immunogenum is nutritionally supplemented with TWEEN 80 and glycerin and has three antibiotics (cyclohexamide, chloramphenicol, and gentimicin) to inhibit fungi and unwanted bacteria. This medium with agar is referred to herein as “Mycoagar.”
The MWFs selected were fluids which had evidence of CMIT incompatibility. The MCC was added to the MWFs 24 hours before the CMIT was added at 15 ppm. Stability was evaluated at time 0 and then after 24 and 48 hours by chemical analysis. Plating for mycobacteria kill was performed with aliquots from time O and after 48 hours.

Compound	suppressing growth of the Mycobacterium immunogenum genotype
O=C([O-])CC(O)(CC(=O)[O-])C(=O)O.[Cu+2] [MCC, disodium monocopper (II) citrate]	ineffective

system: Mycobacterium immunogenum isolate; assay: not given; conditions: Mycobacterium immunogenum isolate from MWF (ATCC 700506); cited from earlier work

Compound	MIC
Cc1cc(NS(=O)(=O)c2ccc(N)cc2)no1 [sulfamethoxazole]	> 64 mg/L
NCC[C@H](O)C(=O)N[C@@H]1C[C@H](N)[C@@H](O[C@H]2O[C@H](CN)[C@@H](O)[C@H](O)[C@H]2O)[C@H](O)[C@H]1O[C@H]1O[C@H](CO)[C@@H](O)[C@H](N)[C@H]1O [amikacin]	128 mg/L (≈ 219 µM)
CO[C@@]1(NC(=O)CSCC#N)C(=O)N2C(C(=O)O)=C(CSc3nnnn3C)CS[C@@H]21 [cefinetazole]	64 mg/L (≈ 136 µM)
CO[C@@]1(NC(=O)Cc2cccs2)C(=O)N2C(C(=O)O)=C(COC(N)=O)CS[C@@H]21 [cefoxitin]	64 mg/L (≈ 150 µM)
C[C@H]1c2cccc(O)c2C(=O)C2=C(O)[C@]3(O)C(=O)C(C(N)=O)=C(O)[C@@H](N(C)C)[C@@H]3[C@@H](O)[C@@H]21 [doxyxycline]	> 128 mg/L
